Patent US20240181022A1, “AMURINS LYSINS, AND LYSIN-ANTIMICROBIAL PEPTIDE (AMP) CONSTRUCTS ACTIVE AGAINST GRAM-NEGATIVE BACTERIA” (priority 2021, published 2024)
≈ marks a conversion by molar mass, not a printed value. Read-outs that look alike come from different tables or passages of the source. Where a SMILES comes first, the peptide text is derived from it. Where no end group is shown, it is not given here. [ ]: non-standard residue; d: D form.

How the values were obtained:
[1] = tested on: M. avium; assay: MIC against M. avium; type: cell-based, Mycobacterium avium; conditions: M. avium (ATCC 700898); CAAT media
[2] = tested on: M. kansasii; assay: MIC against M. kansasii; type: cell-based, Mycobacterium kansasii; conditions: M. kansasi (ATCC 12478); CAAT media
[3] = tested on: A. xylosoxidans; type: cell-based, Achromobacter xylosoxidans; conditions: for MIC: A. xylosoxidans test organism of the sputum time-kill assay
Protocol: (§1) MIC values were determined using a modification of the standard broth microdilution reference method defined by the Clinical and Laboratory Standards Institute (CLSI), CLSL. 2015. Methods for Dilution Antimicrobial Susceptibility Tests for Bacteria That Grow Aerobically; Approved Standard-10th Edition. Clinical and Laboratory Standards Institute, Wayne, PA. The modification was based on the replacement of Mueller Hinton Broth with either CAA media (with and without NaCl) or CAA supplemented with 2.5% human serum. MIC is the minimum concentration of peptide sufficient to suppress at least 80% of the bacterial growth compared to control.
(§2) The MICs for were determined as described below using the broth microdilution method for meropenem, GN370, AM1, AM2, and AM3. The results are shown below in Tables 8-12.
The activity of GN370 and AM1 was evaluated against various bacterial isolates, including mucoid and α-hemolytic isolates of P. aeruginosa, MDR isolates, and carbapenem-resistant isolates.

[4] = tested on: Achromobacter spp.; assay: MIC by broth microdilution against Achromobacter spp.; type: cell-based; conditions: Tables 8-12
Protocol: as §1, §2

[5] = tested on: A. xylosoxidans; assay: Time-kill assay in cystic fibrosis patient sputum, A. xylosoxidans; type: cell-based, Achromobacter xylosoxidans; conditions: for effect of sputum on antibacterial activity: 10% CF sputum vs no sputum; for killing by 1 hour, maintained at 24 hours: time-kill
Excerpt: Sputum from 5 cystic fibrosis patients was pooled. The resulting mixture was not filtered, as it was very dense and not amenable to sterilization by filtration. Sputum is known to be a complex mixture of DNA, carbohydrates, and lipids ([…], 2016). As used herein, the term “sputum” refers to the mucus present in the respiratory tract of an animal, such as a human. Sputum may increase in thickness due to the irritation or infection, including bacterial infection, and in some instances, may be expelled by the animal while coughing. In certain instances, cystic fibrosis may be characterized by the presence of a thick, sticky mucus or sputum present in the lungs of cystic fibrosis patients. The activity of GN370, AM1, AM2, AM3, and meropenem was determined in the sputum using a time-kill assay format as disclosed in Zhang et al., Antimicrobial peptide therapeutics for cystic fibrosis, Antimicrobial Agents Chemother. 2005; 49(7):2921-2927. […] Untreated controls were included in addition to pretreatment plating (t=0) for a baseline CFU determination. Activity was also determined in the absence of sputum for comparison to activity observed in the presence of sputum.

[6] = tested on: B. gladioli; type: cell-based, Burkholderia gladioli; conditions: B. gladioli (15); 2-hour treatment
Protocol: The MBEC (after 2-hour treatments) was determined as described in Jones and Wozniak, PsI Produced by Mucoid Pseudomonas aeruginosa Contributes to the Establishment of Biofilms and Immune Evasion, Am. Soc. Microbiol. 2017, 8(3):e00864-17. Meropenem and tobramycin were included as controls and were both poorly active, with MBEC90 values of >256 μg/mL (data not shown).

[7] = tested on: P. aeruginosa; conditions: for antibiofilm activity (MBEC) against P. aeruginosa: 2-hour treatments

| Molecule | MIC [1] | MIC [2] | MIC50 ([3]; A. xylosoxidans isolates) | MIC90 ([3]; A. xylosoxidans isolates) | MIC [3] | activity (MIC) against Achromobacter spp. [4] | effect of sputum on antibacterial activity [5] | Log10 CFU/mL of sputum ([5]; absence of sputum, 1 hr) | Log10 CFU/mL of sputum ([5]; absence of sputum, 3 hr) | Log10 CFU/mL of sputum ([5]; absence of sputum, 24 hr) | Log10 CFU/mL of sputum ([5]; presence of 10% sputum, 1 hr) | Log10 CFU/mL of sputum ([5]; presence of 10% sputum, 3 hr) | Log10 CFU/mL of sputum ([5]; presence of 10% sputum, 24 hr) | killing by 1 hour, maintained at 24 hours [5] | MBEC50 [6] | MBEC90 [6] | MBEC50 [7] | MBEC90 [7] | MBEC Range [7] | antibiofilm activity (MBEC) against P. aeruginosa [7] | other results |
| --- | --- | --- | --- | --- | --- | --- | --- | --- | --- | --- | --- | --- | --- | --- | --- | --- | --- | --- | --- | --- | --- |
| CC[C@H](C)[C@H](NC(=O)[C@@H](CCCNC(=N)N)NC(=O)[C@H](Cc1ccccc1)NC(=O)CNC(=O)CNC(=O)[C@@H](CCCNC(=N)N)NC(=O)[C@H](CCSC)NC(=O)[C@@H]1CCCN1C(=O)[C@@H](CCCNC(=N)N)NC(=O)[C@H](C)NC(=O)[C@@H](CCCNC(=N)N)NC(=O)[C@H](CC(C)C)NC(=O)[C@H](CC(N)=O)NC(=O)[C@@H](CCCNC(=N)N)NC(=O)[C@@H](CCCCN)NC(=O)[C@@H](CCCCN)NC(=O)[C@@H](NC(=O)[C@H](CC(N)=O)NC(=O)[C@@H](NC(=O)[C@H](C)NC(=O)CNC(=O)[C@@H](CCCNC(=N)N)NC(=O)[C@@H](NC(=O)[C@H](Cc1ccccc1)NC(=O)[C@@H](NC(=O)[C@@H](CCCCN)NC(=O)[C@@H](CCCNC(=N)N)NC(=O)[C@H](CO)NC(=O)[C@@H](CCCCN)NC(=O)[C@@H](CCCCN)NC(=O)[C@@H](CCCCN)NC(=O)[C@H](CO)NC(=O)[C@H](CC(C)C)NC(=O)[C@@H](CCCCN)NC(=O)[C@@H](CCCNC(=N)N)NC(=O)[C@@H](CCCNC(=N)N)NC(=O)[C@@H](CCCCN)NC(=O)[C@@H](N)CCSC)[C@@H](C)CC)[C@@H](C)O)C(C)C)C(C)C)C(=O)O [AM3] (H-M[dK][dR][dR][dK]LS[dK][dK][dK]S[dR][dK]IFT[dR]GAVNV[dK][dK][dR]NL[dR]A[dR]PM[dR]GGF[dR]I-OH; N-terminus and C-terminus assumed) | 1 Tg/mL | 1 µg/mL (≈ 0.219 µM) | 2 µg/mL (≈ 0.438 µM) | 16 µg/mL (≈ 3.5 µM) | AM3 (MIC = 0.5) | variably active | none of GN370, AM1, AM2, and AM3 was inhibited | 4.3 Log10 CFU/mL of sputum | 3.3 Log10 CFU/mL of sputum | 2.3 Log10 CFU/mL of sputum | 2.3 Log10 CFU/mL of sputum | 2.3 Log10 CFU/mL of sputum | 2.3 Log10 CFU/mL of sputum | complete killing | 4 µg/mL | 16 µg/mL | 0.125 µg/mL | 1 µg/mL | 0.016 to 1 µg/mL | primarily active |  |
| MRLKMARRRYRLPRRRSRRLFSRTALRMHPRNRLRRIMRGGIRF [AM1] | 1 Tg/mL | 2 µg/mL | 0.5 µg/mL | 2 µg/mL | AM1 (MIC = 0.5) | highly active | none of GN370, AM1, AM2, and AM3 was inhibited | 2.3 Log10 CFU/mL of sputum | 2.3 Log10 CFU/mL of sputum | 2.3 Log10 CFU/mL of sputum | 2.3 Log10 CFU/mL of sputum | 2.3 Log10 CFU/mL of sputum | 2.3 Log10 CFU/mL of sputum | complete killing | 4 µg/mL | 16 µg/mL | 0.5 µg/mL | 1 µg/mL | 0.064 to 2 µg/mL | highly active | AM1 MIC50 [3]: 0.5 µg/mL; AM1 MIC90 [3]: 1 µg/mL; MIC50 [3]: 1 µg/mL; MIC90 [3]: 4 µg/mL; MIC Range ([3]; A. xylosoxidans isolates, in µg/mL): 0.016-4; MIC Range ([3]; MDR A. xylosoxidans isolates (n = 14), in µg/mL): 0.5-4; AM1 MIC Range ([3]; carbapenem-resistant A. xylosoxidans isolates (n = 7), in µg/mL): 0.06225-1; MBEC Range [6]: 0.5 to 32 µg/mL |
